What is called IC50 is the midpoint of a concentration-inhibition curve.

The structures appear in SMILES notation. A value given as a limit tells only on which side of the number the result lay.

What all share (assay type): biochemical
One experiment has as its target T1, Recombinant EphA7 (Homo sapiens, UniProt Q15375).
T1 construct: purchased Carna 08-126
The experiment can be described thus: EphA7 assay (33P incorporation into poly GT, filter plate). Particulars: EphA7 potency; 0.15 μM ATP; read-out: IC50. Here is the method:
The principle of the assay consists of the measurement of incorporated ^33P into the substrate poly GT when phosphorylated by the enzyme EphA7 using [^33P]-γ-ATP and ATP. Unincorporated ^33P is removed by loading the samples on a filter plate (using a harvester, Perkin Elmer) and 6 subsequent washing steps. ^33P incorporated in polyGT is measured on a Topcount after addition of microscint to the filter plates (Perkin Elmer).
Recombinant EphA7 (Carna Cat#08-126, 2 ng per well) was incubated with 0.1 mg/mL Poly(Glu,Tyr)sodium salt (4:1), MW 20 000-50 000 (Sigma catalog number P0275) in kinase reaction buffer (10 mM MOPS pH 7.2, 5 mM DTT, 0.01% Triton-X100, 5 mM MnCl2, 0.5 mM Na3VO4, 5 mM beta-glycerolphosphate), 0.15 μM non-radioactive ATP, 0.125 μCi/25 μl ^33P-gamma-ATP (Perkin Elmer, catalog number NEG602K) final concentrations with or without 5 μL containing test compound or vehicle (DMSO, 1% final concentration), in a total volume of 25 μL, in a polypropylene 96-well plate (Greiner, V-bottom). After 90 min at 30° C., reactions were stopped by adding of 25 μL/well of 150 mM phosphoric acid. All of the terminated kinase reaction was transferred to prewashed (75 mM phosphoric acid) 96 well filter plates (Perkin Elmer catalog number 6005177) using a cell harvester (Perkin Elmer). Plates were washed 6 times with 300 μL per well of a 75 mM phosphoric acid solution and the bottom of the plates was sealed. 40 μL/well of Microscint-20 was added, the top of the plates was sealed and readout was performed using the Topcount (Perkin Elmer). The ability of a test compound to inhibit the kinase activity was determined using counts per minutes (cpm) measured by the Topcount as:
(§1) Cpm (cpd): cpm determined for sample with test compound present
(§2) Cpm (control): cpm determined for sample with positive control inhibitor (10 μM staurosporine)
(§3) Cpm (vehicle): cpm determined in the presence of vehicle (1% DMSO)
Dose dilution series were prepared for the compounds enabling the testing of dose-response effects in the EphA7 assay and the calculation of the IC50 for each compound. Each compound was routinely tested at concentration of 20 μM followed by a 1/5 serial dilution, 10 points in a final concentration of 1% DMSO. When potency of compound series increased, more dilutions may be prepared and/or the top concentration may be lowered (e.g. 5 μM, 1 μM).

The next experiment addresses T2, EphA2 (UniProt Ref: P29317) (Homo sapiens, UniProt P29317).
T2 construct: purchased Reaction Biology
As to the kind of experiment: EphA2 assay (Reaction Biology HotSpot radioactive kinase assay). To be noted: ATP 10 μM; read-out: EphA2 potency IC50. Here is the method: Inhibition of EphA2 (UniProt Ref: P29317) by a test compound is determined by a commercially available Reaction Biology proprietary nanoliter radioactive HotSpot^SM assay (Reaction Biology, One great valley parkway, Suite 2, Malvern Pa., 19355, USA). The principle of the assay consists of the measurement of incorporated ^33P into poly[Glu:Tyr] (4:1) (0.2 mg/mL) when the substrate is phosphorylated by the enzyme using [^33P]-γ-ATP and ATP (10 μM).
To determine the IC50, a serial dilution of compound is tested starting from 10, or 3 μM (highest dilution) with a 1/3 dilution.

The next experiment has as its target T3, Recombinant EphB2 (Homo sapiens, UniProt P29323).
T3 construct: purchased Carna 08-129
T3 sequence (P29323 19-986 isoform P29323-2 limits assumed): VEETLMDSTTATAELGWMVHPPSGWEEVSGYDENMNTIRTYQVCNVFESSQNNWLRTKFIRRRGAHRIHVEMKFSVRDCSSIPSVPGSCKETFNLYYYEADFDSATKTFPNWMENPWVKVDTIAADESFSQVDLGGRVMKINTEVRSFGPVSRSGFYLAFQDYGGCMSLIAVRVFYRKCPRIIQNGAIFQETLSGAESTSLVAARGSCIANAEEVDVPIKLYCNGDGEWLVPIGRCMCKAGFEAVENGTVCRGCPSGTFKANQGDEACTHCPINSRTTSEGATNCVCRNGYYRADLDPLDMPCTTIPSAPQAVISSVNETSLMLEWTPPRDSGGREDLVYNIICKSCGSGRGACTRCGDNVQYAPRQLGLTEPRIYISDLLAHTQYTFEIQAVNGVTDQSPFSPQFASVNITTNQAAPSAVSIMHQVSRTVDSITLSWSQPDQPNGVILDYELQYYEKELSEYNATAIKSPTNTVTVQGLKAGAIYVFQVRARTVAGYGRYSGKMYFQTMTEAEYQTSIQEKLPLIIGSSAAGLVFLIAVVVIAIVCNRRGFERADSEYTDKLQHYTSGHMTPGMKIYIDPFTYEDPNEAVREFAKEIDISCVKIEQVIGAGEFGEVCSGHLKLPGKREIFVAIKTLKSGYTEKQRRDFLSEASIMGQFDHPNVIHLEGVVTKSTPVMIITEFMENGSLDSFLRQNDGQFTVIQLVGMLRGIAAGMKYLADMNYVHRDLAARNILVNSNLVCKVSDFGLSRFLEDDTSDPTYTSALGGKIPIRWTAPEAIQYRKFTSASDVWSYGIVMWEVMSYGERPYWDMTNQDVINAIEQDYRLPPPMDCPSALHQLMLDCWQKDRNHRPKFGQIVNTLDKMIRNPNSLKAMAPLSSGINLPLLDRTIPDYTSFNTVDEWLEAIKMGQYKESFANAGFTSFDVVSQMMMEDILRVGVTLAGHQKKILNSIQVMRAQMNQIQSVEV
As to the kind of experiment: EphB2 assay (33P incorporation into poly GT, filter plate). To be noted: read-out: EphB2 potency IC50. The method, then:
The principle of the assay consists of the measurement of incorporated ^33P into the substrate poly GT when phosphorylated by the enzyme EphB2 using [^33P]-γ-ATP and ATP. Unincorporated ^33P is removed by loading the samples on a filter plate (using a harvester, Perkin Elmer) and 6 subsequent washing steps. ^33P incorporated in polyGT is measured on a Topcount after addition of microscint to the filter plates (Perkin Elmer).
Recombinant EphB2 (Carna Cat#08-129, 0.6 ng per well) was incubated with 0.05 mg/mL Poly(Glu,Tyr)sodium salt (4:1), MW 20 000-50 000 (Sigma catalog number P0275) in kinase reaction buffer (10 mM MOPS pH 7.2, 5 mM DTT, 0.01% Triton-X100, 5 mM MnCl2, 0.5 mM Na3VO4, 5 mM beta-glycerolphosphate), 0.5 μM non-radioactive ATP, 0.25 μCi/25 μl ^33P-gamma-ATP (Perkin Elmer, catalog number NEG602K) final concentrations with or without 5 μL containing test compound or vehicle (DMSO, 1% final concentration), in a total volume of 25 μL, in a polypropylene 96-well plate (Greiner, V-bottom). After 45 min at 30° C., reactions were stopped by adding of 25 μL/well of 150 mM phosphoric acid. The experiment was then conducted as described for EphA7. The ability of a test compound to inhibit the kinase activity was determined using counts per minutes (cpm) measured by the Topcount as:
as §1, §2, §3
Dose dilution series were prepared for the compounds enabling the testing of dose-response effects in the EphB2 assay and the calculation of the IC50 for each compound. Each compound was routinely tested at concentration of 20 μM followed by a 1/5 serial dilution, 10 points in a final concentration of 1% DMSO. When potency of compound series increased, more dilutions may be prepared and/or the top concentration may be lowered (e.g. 5 μM, 1 μM).

T1 sequence (Q15375 579-998 limits assumed): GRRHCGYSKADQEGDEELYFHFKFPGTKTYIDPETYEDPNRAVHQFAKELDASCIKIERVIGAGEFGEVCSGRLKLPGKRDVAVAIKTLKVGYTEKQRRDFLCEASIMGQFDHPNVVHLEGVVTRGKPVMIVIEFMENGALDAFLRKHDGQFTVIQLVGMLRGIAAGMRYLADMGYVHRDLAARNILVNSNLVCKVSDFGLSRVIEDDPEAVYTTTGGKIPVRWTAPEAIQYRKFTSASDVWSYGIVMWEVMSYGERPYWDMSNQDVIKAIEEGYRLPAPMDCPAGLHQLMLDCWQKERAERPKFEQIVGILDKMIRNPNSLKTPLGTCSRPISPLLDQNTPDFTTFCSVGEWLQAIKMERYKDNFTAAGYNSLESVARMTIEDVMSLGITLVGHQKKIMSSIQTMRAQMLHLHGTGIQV
T2 sequence (P29317 24-976): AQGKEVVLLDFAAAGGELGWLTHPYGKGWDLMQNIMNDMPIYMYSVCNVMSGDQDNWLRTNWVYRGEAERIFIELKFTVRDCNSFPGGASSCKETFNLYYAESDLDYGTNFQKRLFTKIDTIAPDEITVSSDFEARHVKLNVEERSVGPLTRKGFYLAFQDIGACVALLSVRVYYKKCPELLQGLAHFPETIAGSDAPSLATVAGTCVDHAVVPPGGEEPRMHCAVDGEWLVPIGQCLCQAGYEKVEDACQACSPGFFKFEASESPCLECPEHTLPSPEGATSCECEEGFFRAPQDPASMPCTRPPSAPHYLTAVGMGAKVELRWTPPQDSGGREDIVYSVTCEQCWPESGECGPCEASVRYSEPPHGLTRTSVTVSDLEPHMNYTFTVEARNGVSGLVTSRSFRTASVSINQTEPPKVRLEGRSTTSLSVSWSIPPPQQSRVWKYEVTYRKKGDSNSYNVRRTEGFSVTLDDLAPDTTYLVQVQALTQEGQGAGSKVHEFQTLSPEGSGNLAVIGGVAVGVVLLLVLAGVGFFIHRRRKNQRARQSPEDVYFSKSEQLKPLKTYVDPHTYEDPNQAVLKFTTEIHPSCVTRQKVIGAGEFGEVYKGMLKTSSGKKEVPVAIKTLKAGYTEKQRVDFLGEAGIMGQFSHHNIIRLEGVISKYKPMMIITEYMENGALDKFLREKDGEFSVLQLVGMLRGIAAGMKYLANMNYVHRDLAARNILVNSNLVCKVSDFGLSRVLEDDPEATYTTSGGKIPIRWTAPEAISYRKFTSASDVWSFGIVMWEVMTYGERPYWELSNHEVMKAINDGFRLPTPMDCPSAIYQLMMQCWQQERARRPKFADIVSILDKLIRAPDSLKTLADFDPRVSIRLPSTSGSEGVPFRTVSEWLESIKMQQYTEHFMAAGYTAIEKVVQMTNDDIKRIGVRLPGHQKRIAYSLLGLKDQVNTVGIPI

Take `Cc1cc(OCCN2CCOCC2)cc(C(=O)Nc2ccc(C)c(-c3ccc4c(C(C)O)n[nH]c4n3)c2)c1` (stereo not drawn) [Compound 28, N-{3-[3-(1-Hydroxy-ethyl)-1H-pyrazolo[3,4-b]pyridin-6-yl]-4-methyl-phenyl}-3-methyl-5-(2-morpholin-4-yl-ethoxy)-benzamide]: the IC50 was more than 1000 nM at Recombinant EphA7, 25 to 50 nM at EphA2 and 0.01 to 25 nM at Recombinant EphB2.

Turning to `CCc1n[nH]c2nc(-c3cc(NC(=O)c4cc(C)cc(OCCN)c4)ccc3C)ccc12` [Compound 30, 3-(2-Amino-ethoxy)-N-[3-(3-ethyl-1H-pyrazolo[3,4-b]pyridin-6-yl)-4-methyl-phenyl]-5-methyl-benzamide], the IC50 at Recombinant EphA7 was in the range of 250 to 500 nM; on EphA2 it was 0.01 to 25 nM; on Recombinant EphB2 it was 0.01 to 25 nM.

For the compound `CCc1n[nH]c2nc(-c3cc(NC(=O)c4cc(C)cc(OCCCN)c4)ccc3C)ccc12` [Compound 31, 3-(3-Amino-propoxy)-N-[3-(3-ethyl-1H-pyrazolo[3,4-b]pyridin-6-yl)-4-methyl-phenyl]-5-methyl-benzamide], the IC50 is 0.01 to 250 nM on Recombinant EphA7, 0.01 to 25 nM at EphA2 and 0.01 to 25 nM on Recombinant EphB2.

Regarding `COc1cc(OC)cc(C(=O)Nc2cnc(C)c(-c3ccc4c(C5CC5)n[nH]c4n3)c2)c1` [Compound 34, N-(5-(3-cyclopropyl-1H-pyrazolo[3,4-b]pyridin-6-yl)-6-methylpyridin-3-yl)-3,5-dimethoxybenzamide], the results for the half-inhibitory concentration (IC50) on Recombinant EphA7 and on Recombinant EphB2 were more than 1000 nM and 0.01 to 25 nM, respectively.

`CCc1n[nH]c2nc(-c3cc(NC(=O)c4cc(OCCN5CCOCC5)cc(C(F)(F)F)c4)ccc3C)ccc12` [Compound 36, N-[3-(3-Ethyl-1H-pyrazolo[3,4-b]pyridin-6-yl)-4-methyl-phenyl]-3-(2-morpholin-4-yl-ethoxy)-5-trifluoromethyl-benzamide]: the half-maximal inhibitory concentration (IC50) is 500 to 1000 nM at Recombinant EphA7, 0.01 to 25 nM on EphA2 and more than 100 nM on Recombinant EphB2.

For the compound `CCc1n[nH]c2nc(-c3cc(NC(=O)c4cc(OC)cc(C5CC5)c4)cnc3C)ccc12` [Compound 38, 3-Cyclopropyl-N-[5-(3-ethyl-1H-pyrazolo[3,4-b]pyridin-6-yl)-6-methyl-pyridin-3-yl]-5-methoxy-benzamide], the IC50 is 250 to 500 nM at Recombinant EphA7, 0.01 to 25 nM on EphA2 and more than 100 nM on Recombinant EphB2.

As for `CCc1n[nH]c2nc(-c3cc(NC(=O)c4cc(OC)cc(OCCN5CCOCC5)c4)cnc3C)ccc12` [Compound 40, N-[5-(3-Ethyl-1H-pyrazolo[3,4-b]pyridin-6-yl)-6-methyl-pyridin-3-yl]-3-methoxy-5-(2-morpholin-4-yl-ethoxy)-benzamide], the results for the IC50 at Recombinant EphA7 and on Recombinant EphB2 were more than 1000 nM and more than 100 nM, respectively.

`CCc1n[nH]c2nc(-c3cc(NC(=O)c4cccc(C(F)(F)F)c4)cnc3C)ccc12` [Compound 42, N-[5-(3-Ethyl-1H-pyrazolo[3,4-b]pyridin-6-yl)-6-methyl-pyridin-3-yl]-3-trifluoromethyl-benzamide]: the results for the IC50 on Recombinant EphA7, at EphA2 and at Recombinant EphB2 were more than 1000 nM, 50 to 100 nM and more than 100 nM, respectively.

In the case of `CCc1n[nH]c2nc(-c3cc(NC(=O)c4cc(OCCN5CCOCC5)cc(C5CC5)c4)cnc3C)ccc12` [Compound 43, 3-Cyclopropyl-N-[5-(3-ethyl-1H-pyrazolo[3,4-b]pyridin-6-yl)-6-methyl-pyridin-3-yl]-5-(2-morpholin-4-yl-ethoxy)-benzamide], the concentration for half-maximal inhibition (IC50) was in the range of 0.01 to 250 nM on Recombinant EphA7 and 0.01 to 25 nM on EphA2.

`CCc1n[nH]c2nc(-c3cc(NC(=O)c4cc(OC)cc(OCCCN)c4)ccc3C)ccc12` [Compound 45, 3-(3-Amino-propoxy)-N-[3-(3-ethyl-1H-pyrazolo[3,4-b]pyridin-6-yl)-4-methyl-phenyl]-5-methoxy-benzamide]: the half-inhibitory concentration (IC50) at Recombinant EphA7 lay within 250 to 500 nM; at EphA2, 0.01 to 25 nM; at Recombinant EphB2 it was 0.01 to 25 nM.

On to `CCc1n[nH]c2nc(-c3cc(NC(=O)c4cc(OC)cc(OCCCN)c4)cnc3C)ccc12` [Compound 46, 3-(3-Amino-propoxy)-N-[5-(3-ethyl-1H-pyrazolo[3,4-b]pyridin-6-yl)-6-methyl-pyridin-3-yl]-5-methoxy-benzamide], for which the IC50 at Recombinant EphA7 fell in the range of 500 to 1000 nM; at EphA2, 0.01 to 25 nM; on Recombinant EphB2, 25 to 50 nM.

`Cc1cc(C)cc(C(=O)Nc2cnc(C)c(-c3ccc4c(C)n[nH]c4n3)c2)c1` [Compound 52, 3,5-Dimethyl-N-[6-methyl-5-(3-methyl-1H-pyrazolo[3,4-b]pyridin-6-yl)-pyridin-3-yl]-benzamide]: the IC50 on EphA2 lay within 0.01 to 25 nM.

On to `Cc1ncc(NC(=O)c2cccc(C(F)(F)F)c2)cc1-c1ccc2c(C)n[nH]c2n1` [Compound 53, N-[6-Methyl-5-(3-methyl-1H-pyrazolo[3,4-b]pyridin-6-yl)-pyridin-3-yl]-3-trifluoromethyl-benzamide], for which the IC50 at EphA2 lay in the range of 0.01 to 25 nM.

Consider `Cc1cc(C)cc(C(=O)Nc2ccc(C)c(-c3ccc4c(C(C)O)n[nH]c4n3)c2)c1` (stereo not drawn) [Compound 54, N-{3-[3-(1-Hydroxy-ethyl)-1H-pyrazolo[3,4-b]pyridin-6-yl]-4-methyl-phenyl}-3,5-dimethyl-benzamide], for which the IC50 at EphA2 lay within 0.01 to 25 nM.

(Values after patent US9062051B2, “Compounds and pharmaceutical compositions thereof for the treatment of proliferative disorders” (GALAPAGOS NV, priority 2014, dated 2015).)
